Counter-ions that a name gives are not always drawn. Like-named read-outs stand apart in the source and are kept apart here.
How the values were obtained:
[1] = in vitro dissolution of Tapentadol from tablets, paddle apparatus Ph. Eur.; format: physicochemical; conditions: for ethanol induced dose dumping: 0.1 N HCl (pH 1.0) containing 40 vol.-% ethanol compared to pH 1.0
Procedure: The in vitro dissolution of Tapentadol from the tablets (drug load 250 mg, C-1, I-1 and I-3) was measured in a paddle apparatus in accordance with Ph. Eur., equipped with sinker, at a rotational speed of 50 rpm at 37 °C in 900 ml of different dissolution media having different pH values. The experimental results are compiled in the table here below:
The in vitro dissolution of Tapentadol from the tablets (drug load 250 mg, I-4) was measured in a paddle apparatus in accordance with Ph. Eur., equipped with sinker, at a rotational speed of 50 rpm at 37 °C in 900 ml of 0.1 N HCl without ethanol (pH 1.0) and in 0.1 N HCl with 40 vol.-% ethanol (pH 1.0).

[2] = intrinsic dissolution (dissolution rate), Wood's apparatus; format: physicochemical
Procedure: 100 mg of Tapentadol, either in form of the hydrochloride salt or the dihydrogenphosphate salt (mixed form [batch with fine particles], pure hemihydrate or pure anhydrate) were compressed at a compressing force of 200 kg (gravitational) for 1 minute at a surface of 0.5 cm^2. The thus obtained compressed samples were investigated for their dissolution rate in a Wood's apparatus at 37 °C in 900 mL of dissolution medium at different pH values and a rotational speed of the paddle of 50 rpm.

[3] = thermodynamic solubility (saturation solubility); format: physicochemical; conditions: for solubility thermodynamic at 24 h: thermodynamic from solid, read-out: thermodynamic solubility, assay expressed as base
Procedure: The thermodynamic solubility of Tapentadol hydrochloride and of Tapentadol dihydrogen-phosphate (mixed form, batch with fine particles) was determined as saturation solubility in various media at various pH values. The solutions were stirred for 24 hours at 25 °C and the pH values of the solutions at the start and at the end of the experiments were measured. The dissolved amount of Tapentadol was quantified by HPLC (free base of Tapentadol).

[4] = in vivo, cited from earlier work

CC[C@@H](c1cccc(O)c1)[C@@H](C)CN(C)C [Tapentadol hydrochloride, reference compound]
ethanol induced dose dumping [1]: no ethanol induced dose dumping | intrinsic dissolution (dissolution rate) ([2]; pH 1.0, 0 min): 0% | intrinsic dissolution (dissolution rate) ([2]; pH 1.0, 1 min): 52% | intrinsic dissolution (dissolution rate) ([2]; pH 1.0, 3 min): 95% | intrinsic dissolution (dissolution rate) ([2]; pH 1.0, 5 min): 99% | intrinsic dissolution (dissolution rate) ([2]; pH 1.0, 7 min): 99% | intrinsic dissolution (dissolution rate) ([2]; pH 1.0, 9 min): 99% | intrinsic dissolution (dissolution rate) ([2]; pH 4.5, 0 min): 0% | intrinsic dissolution (dissolution rate) ([2]; pH 4.5, 1 min): 60% | intrinsic dissolution (dissolution rate) ([2]; pH 4.5, 3 min): 91% | intrinsic dissolution (dissolution rate) ([2]; pH 4.5, 5 min): 95% | intrinsic dissolution (dissolution rate) ([2]; pH 4.5, 7 min): 95% | intrinsic dissolution (dissolution rate) ([2]; pH 4.5, 9 min): 96% | intrinsic dissolution (dissolution rate) ([2]; pH 6.8, 0 min): 0% | intrinsic dissolution (dissolution rate) ([2]; pH 6.8, 1 min): 38% | intrinsic dissolution (dissolution rate) ([2]; pH 6.8, 3 min): 79% | intrinsic dissolution (dissolution rate) ([2]; pH 6.8, 5 min): 92% | intrinsic dissolution (dissolution rate) ([2]; pH 6.8, 7 min): 94% | intrinsic dissolution (dissolution rate) ([2]; pH 6.8, 9 min): 94% | intrinsic dissolution (dissolution rate) ([2]; pH 7.4, 0 min): 0% | intrinsic dissolution (dissolution rate) ([2]; pH 7.4, 1 min): 27% | intrinsic dissolution (dissolution rate) ([2]; pH 7.4, 3 min): 65% | intrinsic dissolution (dissolution rate) ([2]; pH 7.4, 5 min): 80% | intrinsic dissolution (dissolution rate) ([2]; pH 7.4, 7 min): 89% | intrinsic dissolution (dissolution rate) ([2]; pH 7.4, 9 min): 92% | pH end ([3]; 0.1 M HCl, pH start 1.11): 0.83 | pH end ([3]; 0.15N NaOH, pH start 13.08): 8.21 | pH end ([3]; SIF sp pH 6.8, pH start 6.82): 6.23 | pH end ([3]; acetate pH 4.5, pH start 4.54): 4.29 | pH end ([3]; citrate pH 6.8, pH start 6.83): 6.17 | pH end ([3]; citrate pH 7.4, pH start 7.39): 6.33 | solubility thermodynamic at 24 h ([3]; pH 1.11, aqueous buffer, 0.1 M HCl, pH start 1.11, 24 hours at 25 °C): 312 mg/mL | solubility thermodynamic at 24 h ([3]; pH 13.08, aqueous buffer, 0.15N NaOH, pH start 13.08, 24 hours at 25 °C): 66 mg/mL | pH end ([3]; water): 4.63

CN1CC[C@]23c4c5ccc(O)c4O[C@H]2C(=O)CC[C@@]3(O)[C@H]1C5 [Oxymorphone]
Maximum individual Cmax ratio with 40% alcohol [4]: 2.70 | mean increase in Cmax ratio relative to drug co-ingested with 0% alcohol [4]: 1.70

CC[C@@H](c1cccc(O)c1)[C@@H](C)CN(C)C [Tapentadol, (-)-(1R,2R)-3-(3-dimethylamino-1-ethyl-2-methyl-propyl)-phenol]
Maximum individual Cmax ratio with 40% alcohol ([4]; 100 mg): 4.38 | mean increase in Cmax ratio relative to drug co-ingested with 0% alcohol ([4]; 100 mg): 1.48 | Maximum individual Cmax ratio with 40% alcohol ([4]; 250 mg): 2.67 | mean increase in Cmax ratio relative to drug co-ingested with 0% alcohol ([4]; 250 mg): 1.28

Tapentadol dihydrogenphosphate
ethanol induced dose dumping [1]: no ethanol induced dose dumping | additional retardant effect in aqueous ethanol compared to Tapentadol hydrochloride ([1]; 0.1 N HCl (pH 1.0) containing 40 vol.-% ethanol, same excipients in same amounts): significantly stronger | time difference to a release of 70% compared to Tapentadol hydrochloride ([1]; pH 4.5, aqueous buffer without ethanol): more than one | dissolution rate compared with Tapentadol hydrochloride ([2]; at all tested pH values): significantly slower dissolution rate | intrinsic dissolution (dissolution rate) ([2]; pH 1.0, 0 min): 0% | intrinsic dissolution (dissolution rate) ([2]; pH 1.0, 1 min): 14% | intrinsic dissolution (dissolution rate) ([2]; pH 1.0, 3 min): 35% | intrinsic dissolution (dissolution rate) ([2]; pH 1.0, 5 min): 56% | intrinsic dissolution (dissolution rate) ([2]; pH 1.0, 7 min): 78% | intrinsic dissolution (dissolution rate) ([2]; pH 1.0, 9 min): 84% | intrinsic dissolution (dissolution rate) ([2]; pH 4.5, 0 min): 0% | intrinsic dissolution (dissolution rate) ([2]; pH 4.5, 1 min): 12% | intrinsic dissolution (dissolution rate) ([2]; pH 4.5, 3 min): 30% | intrinsic dissolution (dissolution rate) ([2]; pH 4.5, 5 min): 49% | intrinsic dissolution (dissolution rate) ([2]; pH 4.5, 7 min): 73% | intrinsic dissolution (dissolution rate) ([2]; pH 4.5, 9 min): 86% | intrinsic dissolution (dissolution rate) ([2]; pH 6.8, 0 min): 0% | intrinsic dissolution (dissolution rate) ([2]; pH 6.8, 1 min): 11% | intrinsic dissolution (dissolution rate) ([2]; pH 6.8, 3 min): 29% | intrinsic dissolution (dissolution rate) ([2]; pH 6.8, 5 min): 48% | intrinsic dissolution (dissolution rate) ([2]; pH 6.8, 7 min): 66% | intrinsic dissolution (dissolution rate) ([2]; pH 6.8, 9 min): 77% | intrinsic dissolution (dissolution rate) ([2]; pH 7.4, 0 min): 0% | intrinsic dissolution (dissolution rate) ([2]; pH 7.4, 1 min): 12% | intrinsic dissolution (dissolution rate) ([2]; pH 7.4, 3 min): 30% | intrinsic dissolution (dissolution rate) ([2]; pH 7.4, 5 min): 46% | intrinsic dissolution (dissolution rate) ([2]; pH 7.4, 7 min): 63% | intrinsic dissolution (dissolution rate) ([2]; pH 7.4, 9 min): 78% | pH end ([3]; 0.1 M HCl, pH start 1.11): 2.55 | thermodynamic solubility, assay expressed as base ([3]; 0.1 M HCl, pH start 1.11, 24 hours at 25 °C): 24.3 g/100 mL | pH end ([3]; 0.15N NaOH, pH start 13.08): 8.09 | thermodynamic solubility, assay expressed as base ([3]; 0.15N NaOH, pH start 13.08, 24 hours at 25 °C): 6.5 g/100 mL | pH end ([3]; SIF sp pH 6.8, pH start 6.82): 2.81 | thermodynamic solubility, assay expressed as base ([3]; SIF sp pH 6.8, pH start 6.82, 24 hours at 25 °C): 20.2 g/100 mL | pH end ([3]; acetate pH 4.5, pH start 4.54): 2.81 | thermodynamic solubility, assay expressed as base ([3]; acetate pH 4.5, pH start 4.54, 24 hours at 25 °C): 21.2 g/100 mL | pH end ([3]; citrate pH 6.8, pH start 6.83): 3.15 | thermodynamic solubility, assay expressed as base ([3]; citrate pH 6.8, pH start 6.83, 24 hours at 25 °C): 19.3 g/100 mL | pH end ([3]; citrate pH 7.4, pH start 7.39): 3.16 | thermodynamic solubility, assay expressed as base ([3]; citrate pH 7.4, pH start 7.39, 24 hours at 25 °C): 19.0 g/100 mL | thermodynamic solubility compared with Tapentadol hydrochloride ([3]; under all tested conditions): below that of Tapentadol hydrochloride | pH end ([3]; water): 2.75 | thermodynamic solubility, assay expressed as base ([3]; water, 24 hours at 25 °C): 21.4 g/100 mL

CC[C@@H](c1cccc(O)c1)[C@@H](C)CN(C)C.O=P(O)(O)O [Tapentadol dihydrogenphosphate anhydrate]
intrinsic dissolution (dissolution rate) ([2]; pH 1.2, 0 min): 0% | intrinsic dissolution (dissolution rate) ([2]; pH 1.2, 1 min): 15% | intrinsic dissolution (dissolution rate) ([2]; pH 1.2, 3 min): 37% | intrinsic dissolution (dissolution rate) ([2]; pH 1.2, 5 min): 57% | intrinsic dissolution (dissolution rate) ([2]; pH 1.2, 7 min): 75% | intrinsic dissolution (dissolution rate) ([2]; pH 1.2, 9 min): 85% | intrinsic dissolution (dissolution rate) ([2]; pH 6.8, 0 min): 0% | intrinsic dissolution (dissolution rate) ([2]; pH 6.8, 1 min): 13% | intrinsic dissolution (dissolution rate) ([2]; pH 6.8, 3 min): 36% | intrinsic dissolution (dissolution rate) ([2]; pH 6.8, 5 min): 66% | intrinsic dissolution (dissolution rate) ([2]; pH 6.8, 7 min): 90% | intrinsic dissolution (dissolution rate) ([2]; pH 6.8, 9 min): 96%

CC[C@@H](c1cccc(O)c1)[C@@H](C)CN(C)C.CC[C@@H](c1cccc(O)c1)[C@@H](C)CN(C)C.O.O=P(O)(O)O.O=P(O)(O)O [Tapentadol dihydrogenphosphate hemihydrate]
intrinsic dissolution (dissolution rate) ([2]; pH 1.2, 0 min): 0% | intrinsic dissolution (dissolution rate) ([2]; pH 1.2, 1 min): 14% | intrinsic dissolution (dissolution rate) ([2]; pH 1.2, 3 min): 37% | intrinsic dissolution (dissolution rate) ([2]; pH 1.2, 5 min): 54% | intrinsic dissolution (dissolution rate) ([2]; pH 1.2, 7 min): 72% | intrinsic dissolution (dissolution rate) ([2]; pH 1.2, 9 min): 84% | intrinsic dissolution (dissolution rate) ([2]; pH 6.8, 0 min): 0% | intrinsic dissolution (dissolution rate) ([2]; pH 6.8, 1 min): 12% | intrinsic dissolution (dissolution rate) ([2]; pH 6.8, 3 min): 36% | intrinsic dissolution (dissolution rate) ([2]; pH 6.8, 5 min): 66% | intrinsic dissolution (dissolution rate) ([2]; pH 6.8, 7 min): 80% | intrinsic dissolution (dissolution rate) ([2]; pH 6.8, 9 min): 83%

COc1ccc2c3c1O[C@H]1C(=O)CC[C@H]4[C@@H](C2)N(C)CC[C@]314 [Hydrocodone]
Maximum individual Cmax ratio with 40% alcohol [4]: 3.9 | mean increase in Cmax ratio relative to drug co-ingested with 0% alcohol [4]: 2.3
